# Marks after values point to notes of the source that are not given here.
# Columns and labels:
# [1] = system: "in vitro" rumen fluid culture; assay: Biogas production in "in vitro" rumen fluid culture (pressure meter); type: cell-based, calves; design: Average biogas production / Cumulative biogas production / Biogas production: unit not given here; conditions: for Average biogas production: average over doses and incubation times
# Description: (§1) Two trials following an identical experimental protocol were designed to study the effect of different pure flavonoids on rumen fermentation using a simulatory “in vitro” system based on the experimental protocol described by Theodorou M K et al. (1994) Animal Feed Science and Technology, 48 (3), p. 185-197; Mauricio, R. M., et al. (1999) Animal Feed Science and Technology 79, 321-330.
# Gas production was determined from a semi-automatic pressure meter, the relationship between pressure levels and the produced gas volume was previously calculated.
# (§2) Rumen cannulated calves which received a mixed ration mainly composed of concentrate (90:10) were used as rumen fluid donor; feed composition is presented in Table 1. The inoculum was collected and filtered through two-layer surgical gauze and kept in thermo pots. Flavonoids (Table 2) plus 600 mg of concentrate (Table 1) and 60 mg of barley straw as the substrate were dosed by triplicate in preheated bottles (39° C.) and maintained under anaerobic conditions. Flavonoids isonaringin, neoeritrocin, poncirin were purchased from INDOFINE Chemical Company, Inc (USA). 10 ml of rumen fluid and 40 ml of incubation medium were added to the bottles (McDougall, El (1948) Studies on ruminant saliva. 1. The composition and output of sheep's saliva. Biochem J. 43(1) 99-109). Once the bottles were filled and the anaerobic condition was applied, the bottles were sealed and the incubation process was started in a hot water bath. […] Each sample was incubated in triplicate in two sets or batches.
# [2] = system: methanogenic (archea) populations; assay: Methane production in "in vitro" rumen fluid culture; type: cell-based, calves; design: Average methane production / Accumulated methane production / Methane production / Cumulative methane production: unit not given here
# Source text: as §1, §2
# The effects of flavonoids substances on fermentation activity of certain archea populations which are theoretically responsible for the methane production were analyzed.
# The experimental design allows determining whether the effect of flavonoids on methane reduction was derived from a general reduction in microbial activity and biogas production or contrarily flavonoid affects specifically on methanogenic (archea) populations. The presence of flavonoids in the culture medium reduced methane contribution in the total biogas production (P<0.05) although, again, the aforementioned impact was heterogeneous.
# [3] = system: "in vitro" ruminal fluid cultures; assay: Volatile fatty acid concentration and molar proportions in "in vitro" ruminal fluid cultures; type: cell-based, calves
# Source text: as §1
# (§3) Rumen cannulated calves which received a mixed ration mainly composed of concentrate (90:10) were used as rumen fluid donor; feed composition is presented in Table 1. The inoculum was collected and filtered through two-layer surgical gauze and kept in thermo pots. Flavonoids (Table 2) plus 600 mg of concentrate (Table 1) and 60 mg of barley straw as the substrate were dosed by triplicate in preheated bottles (39° C.) and maintained under anaerobic conditions. Flavonoids isonaringin, neoeritrocin, poncirin were purchased from INDOFINE Chemical Company, Inc (USA). 10 ml of rumen fluid and 40 ml of incubation medium were added to the bottles (McDougall, El (1948) Studies on ruminant saliva. 1. The composition and output of sheep's saliva. Biochem J. 43(1) 99-109). Once the bottles were filled and the anaerobic condition was applied, the bottles were sealed and the incubation process was started in a hot water bath. Pressure readings were made at 2, 4, 6, 8, 12, 24, 36 and 48 hours. Each sample was incubated in triplicate in two sets or batches.
# […] P., 1982 Science des Aliments 2, 131-144), lactate (Taylor, K. A. C. C., 1996. Appl. Biochem. Biotechnol. Enzym. Eng. Biotechnol. 56, 49-58) and ammonia (Chaney, A. L., Marbach, E. P., 1962. Clin. Chem. 8, 130-132) analyses.
# [4] = system: "in vitro" ruminal fluid cultures; assay: Ammonia (N-NH3) concentration in "in vitro" ruminal fluid cultures; type: cell-based, calves
# Source text: as §1, §3
# (§4) After 12 hours of incubation, one bottle (replicate) from each treatment was opened, pH was recorded and the bottle was sampled for volatile fatty acids (Jouany, J. P., 1982 Science des Aliments 2, 131-144), lactate (Taylor, K. A. C. C., 1996. Appl. Biochem. Biotechnol. Enzym. Eng. Biotechnol. 56, 49-58) and ammonia (Chaney, A. L., Marbach, E. P., 1962. Clin. Chem. 8, 130-132) analyses.
# [5] = system: "in vitro" ruminal fluid culture; assay: Lactate concentration in "in vitro" ruminal fluid culture; type: cell-based, calves; conditions: 12 hours of incubation
# Source text: as §1, §3, §4
# ruminal bacteria = assay: Bacterial DNA concentration by qPCR; type: cell-based, calves; conditions: 12 hours of incubation
# Description: as §3, §4
# (§5) The environmental DNA was extracted using the technique proposed by Yu and Morrison (2004). Quantification of Streptococcus bovis, Megasphaera elsdenii and Selenomonas ruminantium DNA was done by qPCR using specific primers (Tajima, K. et al. 2001. Appl. Environ. Microb. 67, 2766-2774; Ouwerkerk, D., et al. 2002. J. Appl. Microbiol. 92, 753-758). Results were statistically analyzed using the PROC MIXED procedure of SAS statistical package (SAS, 2000, User's guide: Statistics, version 8 editions inst., Inc., Cary, N.C.). The least significant difference was used to compare the means. Differences between means in which P<0.05 were accepted as significant.
# Streptococcus bovis = assay: qPCR relative quantification of Streptococcus bovis; type: cell-based; conditions: 12 hours of incubation
# Description: as §3, §4, §5
# Selenomonas ruminantium = assay: qPCR relative quantification of Selenomonas ruminantium; type: cell-based; conditions: 12 hours of incubation
# Description: as §3, §4, §5
# Megasphaera elsdenii = assay: qPCR relative quantification of Megasphaera elsdenii; type: cell-based; conditions: 12 hours of incubation
# Description: as §3, §4, §5
# [6] = system: "in vitro" ruminal fluid cultures; assay: Ammonia (N-NH3) concentration in "in vitro" ruminal fluid cultures; type: cell-based, calves; conditions: 72 h
# [7] = Exp 1, average over doses and incubation times, listed as neohesperidin
smiles,measurement,setting,value
"COc1ccc([C@@H]2CC(=O)c3c(O)cc(O[C@@H]4O[C@H](CO)[C@@H](O)[C@H](O)[C@H]4O[C@@H]4O[C@@H](C)[C@H](O)[C@@H](O)[C@H]4O)cc3O2)cc1O [Neohesperidin, neohesperidin]",Cumulative biogas production,"[1]; Exp 1, 12 h incubation",175.93
same,Cumulative biogas production,"[1]; Exp 1, 24 h incubation",217.84
same,Cumulative biogas production,"[1]; Exp 1, 48 h incubation",253.99
same,Cumulative biogas production,"[1]; Exp 1, 72 h incubation",275.06
same,Average biogas production,[1]; Exp 1,230.71^e
same,Average biogas production,"[1]; Exp 1, listed as neohesperidin",230.7
same,Biogas production,"[1]; Exp 1, dose 1, 0.2 g/kg DM",238.13
same,Biogas production,"[1]; Exp 1, dose 2, 0.5 g/kg DM",223.28
same,Dosage effect on gas production,"[1]; Exp 1, inclusion levels 200 and 500 mg/kg",more pronounced dosage effect
same,Average biogas production,[1]; Exp 2 (second trial),268.16^c
same,Cumulative biogas production,"[1]; Exp 2, 12 h",215.60
same,Cumulative biogas production,"[1]; Exp 2, 24 h",256.18
same,Cumulative biogas production,"[1]; Exp 2, 48 h",292.28
same,Cumulative biogas production,"[1]; Exp 2, 72 h",308.57
same,Biogas production,"[1]; Exp 2, dose 1, 0.2 g/kg DM",267.1
same,Biogas production,"[1]; Exp 2, dose 2, 0.5 g/kg DM",269.2
same,Dosage effect on methane production,"[2]; Exp 1, 200 vs 500 mg/kg DM",more reduced by increasing the dose
same,Accumulated methane production,"[2]; Exp 1, 12 h",18.02
same,Proportion of methane in the produced biogas,"[2]; Exp 1, 12 h",10.21
same,Accumulated methane production,"[2]; Exp 1, 24 h",23.15
same,Proportion of methane in the produced biogas,"[2]; Exp 1, 24 h",12.34
same,Accumulated methane production,"[2]; Exp 1, 48 h",28.84
same,Proportion of methane in the produced biogas,"[2]; Exp 1, 48 h",15.91
same,Accumulated methane production,"[2]; Exp 1, 72 h",32.18
same,Proportion of methane in the produced biogas,"[2]; Exp 1, 72 h",16.20
same,Proportion of methane in the produced biogas,"[2]; Exp 1, average over doses and incubation times",13.66^d
same,Average methane production,[2]; [7],decreased
same,Proportion of methane in the produced biogas,[2]; [7],13.70
same,Methane production,"[2]; Exp 1, dose 1, 0.2 g/kg DM",27.63
same,Proportion of methane in the produced biogas,"[2]; Exp 1, dose 1, 0.2 g/kg DM",13.98
same,Methane production,"[2]; Exp 1, dose 2, 0.5 g/kg DM",23.46
same,Proportion of methane in the produced biogas,"[2]; Exp 1, dose 2, 0.5 g/kg DM",13.35
same,Average methane production,"[2]; Exp 2 (second trial), average over doses and incubation times",30.44^b
same,Cumulative methane production,"[2]; Exp 2, 12 h",22.52
same,Cumulative methane production,"[2]; Exp 2, 24 h",27.98
same,Cumulative methane production,"[2]; Exp 2, 48 h",34.31
same,Cumulative methane production,"[2]; Exp 2, 72 h",36.95
same,Methane production,"[2]; Exp 2, dose 1, 0.2 g/kg DM",30.1
same,Methane production,"[2]; Exp 2, dose 2, 0.5 g/kg DM",30.8
same,"% Acetate, molar ratio",[3]; 0 h,62.51 mol/100 mol
same,"% Butyrate, molar ratio",[3]; 0 h,9.07 mol/100 mol
same,"% Propionate, molar ratio",[3]; 0 h,20.03 mol/100 mol
same,A/P rate (acetate/propionate),[3]; 0 h,3.12
same,VFA concentration,[3]; 0 h (initial constant value),13.78 mmol/L
same,"% Acetate, molar ratio",[3]; 12 h,54.68 mol/100 mol
same,"% Butyrate, molar ratio",[3]; 12 h,9.68 mol/100 mol
same,"% Propionate, molar ratio",[3]; 12 h,30.05 mol/100 mol
same,A/P rate (acetate/propionate),[3]; 12 h,1.82
same,VFA concentration,[3]; 12 h,36.97 mmol/L
same,"% Acetate, molar ratio",[3]; 72 h,55.68 mol/100 mol
same,"% Butyrate, molar ratio",[3]; 72 h,9.96 mol/100 mol
same,"% Propionate, molar ratio",[3]; 72 h,26.91 mol/100 mol
same,A/P rate (acetate/propionate),[3]; 72 h,2.07
same,VFA concentration,[3]; 72 h,53.04 mmol/L
same,"% Acetate, molar ratio, average (μ)",[3]; average over incubation times,57.62 mol/100 mol
same,"% Butyrate, molar ratio, average (μ)",[3]; average over incubation times,9.57 ^a mol/100 mol
same,"% Propionate, molar ratio, average (M)",[3]; average over incubation times,25.66 ^b mol/100 mol
same,"VFA concentration, average (μ)",[3]; average over incubation times,34.60 mmol/L
same,N-NH3 concentration,[4]; 0 h (initial constant value),149.99 mg/L
same,N-NH3 concentration,[4]; 12 h,168.38 mg/L
same,"N-NH3 concentration, average (M)",[4]; average over incubation times,219.18 mg/L
same,Lactate,[5],45.8 mg/L
same,Lactate,[5]; listed as neohesperidin,tended to moderate the recorded increase
same,Bacteria DNA,ruminal bacteria,23.93 ^ab μg/ml
same,Bacteria DNA,ruminal bacteria; listed as neohesperidin,increase did only reach statistical significance
same,Relative Quantification 2^(ΔΔCt) S. bovis,Streptococcus bovis,0.25
same,Relative Quantification 2^(ΔΔCt) S. ruminantium,Selenomonas ruminantium,0.53
same,Relative Quantification 2^(ΔΔCt) M. elsdenii,Megasphaera elsdenii,1.35 ^c
same,Relative Quantification 2^(ΔΔCt) M. elsdenii,Megasphaera elsdenii; listed as neohesperidin,improved
same,N-NH3 concentration,[6],339.17 mg/L

# From patent US10159265B2, “Feed composition for reducing ruminant methanogenesis” (priority 2012, dated 2018)
